The values below are quoted from earlier work in patent EP2561868A1 (Van Oosten, Anton Bernhard, priority 2011, dated 2013).

Entries after “also recorded” stand apart in the source; their conditions may differ.

Test in series [1]: not given
The source holds these as a separate data set.

A further series concerns serum immunoglobulin. The following applies: patient Z.
Series [2] concerns multiple myeloma and MGUS. The following applies: patients with multiple myeloma and MGUS.
The test system of a further series is bone marrow plasma cell. The conditions noted are these: patient Z.
The next series has as its target P-glycoprotein (Homo sapiens, UniProt P08183).
The target in another series is human CYP3A4 (Homo sapiens, UniProt P08684).
Sequence of human CYP3A4 (P08684 whole entry): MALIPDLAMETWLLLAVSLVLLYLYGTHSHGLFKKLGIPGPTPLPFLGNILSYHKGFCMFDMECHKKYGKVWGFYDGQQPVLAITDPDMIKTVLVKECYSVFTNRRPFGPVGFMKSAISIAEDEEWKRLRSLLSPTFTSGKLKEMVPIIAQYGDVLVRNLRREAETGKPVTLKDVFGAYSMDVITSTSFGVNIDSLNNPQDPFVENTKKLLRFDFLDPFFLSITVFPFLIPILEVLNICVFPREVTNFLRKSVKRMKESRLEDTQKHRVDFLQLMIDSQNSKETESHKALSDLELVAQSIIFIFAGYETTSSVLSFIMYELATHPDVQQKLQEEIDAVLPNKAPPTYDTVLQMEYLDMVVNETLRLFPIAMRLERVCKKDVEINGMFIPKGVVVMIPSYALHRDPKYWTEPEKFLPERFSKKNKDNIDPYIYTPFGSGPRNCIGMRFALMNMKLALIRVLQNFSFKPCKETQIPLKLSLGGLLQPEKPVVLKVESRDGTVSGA
Where [3] appears, read: curcumin 8000 - 14,000 mg, no HCQ.

Sequence of P-glycoprotein (P08183 whole entry): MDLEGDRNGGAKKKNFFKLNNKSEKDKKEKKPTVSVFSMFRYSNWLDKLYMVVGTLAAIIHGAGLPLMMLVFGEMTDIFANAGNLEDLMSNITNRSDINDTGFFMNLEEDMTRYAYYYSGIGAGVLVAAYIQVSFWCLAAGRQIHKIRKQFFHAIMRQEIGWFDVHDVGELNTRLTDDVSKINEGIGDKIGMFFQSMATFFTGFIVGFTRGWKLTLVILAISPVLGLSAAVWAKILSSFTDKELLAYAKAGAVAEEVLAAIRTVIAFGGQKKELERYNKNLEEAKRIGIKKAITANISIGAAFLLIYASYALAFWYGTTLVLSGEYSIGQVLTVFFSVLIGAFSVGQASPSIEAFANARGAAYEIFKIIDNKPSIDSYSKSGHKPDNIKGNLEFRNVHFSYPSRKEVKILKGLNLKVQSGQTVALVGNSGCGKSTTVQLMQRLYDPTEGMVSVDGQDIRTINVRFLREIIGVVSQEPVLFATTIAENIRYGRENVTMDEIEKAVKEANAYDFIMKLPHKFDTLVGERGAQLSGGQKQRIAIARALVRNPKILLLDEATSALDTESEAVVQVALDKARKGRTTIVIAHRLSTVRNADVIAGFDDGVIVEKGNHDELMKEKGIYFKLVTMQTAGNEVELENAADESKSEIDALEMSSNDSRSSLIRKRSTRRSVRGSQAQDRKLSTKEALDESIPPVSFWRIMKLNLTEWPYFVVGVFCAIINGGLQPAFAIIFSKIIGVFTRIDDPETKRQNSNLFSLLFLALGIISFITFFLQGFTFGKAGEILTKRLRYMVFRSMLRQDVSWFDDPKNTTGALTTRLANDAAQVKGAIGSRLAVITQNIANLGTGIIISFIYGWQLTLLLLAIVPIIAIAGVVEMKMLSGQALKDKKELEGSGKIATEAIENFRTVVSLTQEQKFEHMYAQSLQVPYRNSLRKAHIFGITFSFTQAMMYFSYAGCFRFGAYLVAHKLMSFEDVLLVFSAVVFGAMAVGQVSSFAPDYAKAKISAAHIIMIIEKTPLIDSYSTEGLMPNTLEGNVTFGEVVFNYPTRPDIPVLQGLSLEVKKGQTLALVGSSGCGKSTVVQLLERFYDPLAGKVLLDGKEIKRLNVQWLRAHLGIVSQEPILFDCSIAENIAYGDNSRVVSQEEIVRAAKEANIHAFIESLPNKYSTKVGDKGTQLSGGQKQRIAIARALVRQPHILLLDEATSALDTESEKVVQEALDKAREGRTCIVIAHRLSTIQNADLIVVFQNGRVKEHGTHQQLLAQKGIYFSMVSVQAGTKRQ

Regarding `CCN(CCO)CCCC(C)Nc1ccnc2cc(Cl)ccc12.O=S(=O)(O)O` (centres unmarked) [Hydroxychloroquine, 2-[[4-[(7-Chloro-4-quinolyl)amino]pentyl]ethylamino] ethanol sulfate (1:1)], the risk of toxicity (after 5 to 7 years of use, or a cumulative dose of 1000 g) is given as ~1%. Further, under “non-obese person (Marmor M et al., 2002)”, the dose considered safe was 6.5 mg/kg/day. Also, the soluble in water entry in series [1] is recorded as “at least 20%”.

Take `O=C1CC[C@@]2(O)[C@H]3Cc4ccc(O)c5c4[C@@]2(CCN3CC2CC2)[C@H]1O5` [LDN]: in the series with serum immunoglobulin (serum, 12/26/07, LDN, diet), the IgG is given as 30.0 g/L and the M-IgG was 20.5 g/L.

As to `COc1cc(/C=C/C(=O)CC(=O)/C=C/c2ccc(O)c(OC)c2)ccc1O` [curcumin], in series [2], the objective responses entry is on record as “no objective responses”. In addition, the “m-spike / M-IgG serum concentration, response to treatment” value in the series on serum immunoglobulin (setting [3]) was “did not react to treatment”. For the same compound, the clinical benefit entry in the series on bone marrow plasma cell (8000 mg to 14,000 mg daily, June 27 to December 26, 2007) is “without any clear benefit”. For the same compound, in the series with bone marrow plasma cell (setting [3]), the “BMPC values / progression” value was “did not prevent progression or cause a downward evolution of the BMPC nor the m-spike; also recorded: No clear benefit”.

`O=C(/C=C/C=C/c1ccc2c(c1)OCO2)N1CCCCC1` [piperine]: at P-glycoprotein, the “inhibition of P-glycoprotein” value was “inhibit”. Also, the “inhibition of human CYP3A4” value on human CYP3A4 is given as “inhibit”.
